Laboratory results taken from patent publication US12077503B2, “Substituted cyclic amides and their use as herbicides” (FMC CORPORATION, priority 2015, dated 2024).

What was measured:
Type in all cases: in vivo
[1] = system: speedwell (bird's-eye speedwell, Veronica persica); assay: Test D preemergence; conditions: scale 0 to 100
Summary of the method: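 Planted in silt loam, then treated preemergence with test compound formulated in a surfactant-containing non-phytotoxic solvent. Held ~21 d under controlled growth conditions. Scored visually against controls on a 0–100 scale.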

[2] = system: barnyardgrass (Echinochloa crus-galli); assay: Test G Post-Emergence Protocol; conditions: Echinochloa crus-galli, post-emergence, 312 h; for pest or weed control at 15.625 g/ha: 15.625 g ai/ha, evaluated after 13 days (100=total damage to plant; 0=no damage to plant), read-out: Barnyardgrass damage rating; for pest or weed control at 62.5 g/ha: 62.5 g ai/ha, read-out: Barnyardgrass damage rating (100=total damage to plant; 0=no damage to plant); for pest or weed control at 62.5 g/ha / pest or weed control at 250 g/ha: evaluated after 13 days; for pest or weed control at 250 g/ha: 250 g ai/ha, read-out: damage to plant, Barnyardgrass (100=total damage to plant; 0=no damage to plant)
Protocol: (§1) Seeds of corn (Zea mays), giant foxtail (Setaria faberi), barnyardgrass (Echinochloa crus-galli), ivy-leaved morning glory (Ipomoea hederacea), redroot pigweed (Amaranthus retroflexus) and velvetleaf (Abutilon theophrasti) were sown in standard soil in pots. After cultivation for 8 days under controlled conditions in a glasshouse (at 24/16° C., day/night; 14 hours light; 65% humidity), the plants were sprayed with an aqueous spray solution derived from the formulation of the technical active ingredient in acetone/water (50:50) solution containing 0.5% Tween 20 (polyoxyethylene sorbitan monolaurate, CAS RN 9005-64-5) to give a final dose of 15.625, 62.5 or 250 g/ha of test compound.
(§2) The test plants were then grown on under controlled conditions in a glasshouse (at 24/16° C., day/night; 14 hours light; 65% humidity) and watered twice daily. After 13 days the test was evaluated (100=total damage to plant; 0=no damage to plant). A dash (-) means no test result.

[3] = system: corn (Zea mays); assay: Test G Post-Emergence Protocol; conditions: Zea mays, post-emergence, 312 h; for plant injury at 15.625 g/ha: 15.625 g ai/ha, evaluated after 13 days (100=total damage to plant; 0=no damage to plant), read-out: Corn damage rating; for plant injury at 62.5 g/ha: 62.5 g ai/ha, read-out: Corn damage rating (100=total damage to plant; 0=no damage to plant); for plant injury at 62.5 g/ha / plant injury at 250 g/ha: evaluated after 13 days; for plant injury at 250 g/ha: 250 g ai/ha, read-out: damage to plant, Corn (100=total damage to plant; 0=no damage to plant)
Protocol: as §1, §2

[4] = system: giant foxtail (Setaria faberi); assay: Test G Post-Emergence Protocol; conditions: Setaria faberi, post-emergence, 312 h; for pest or weed control at 15.625 g/ha: 15.625 g ai/ha, evaluated after 13 days (100=total damage to plant; 0=no damage to plant), read-out: Foxtail, Giant damage rating; for pest or weed control at 62.5 g/ha: 62.5 g ai/ha, read-out: Foxtail, Giant damage rating (100=total damage to plant; 0=no damage to plant); for pest or weed control at 62.5 g/ha / pest or weed control at 250 g/ha: evaluated after 13 days; for pest or weed control at 250 g/ha: 250 g ai/ha, read-out: damage to plant, Foxtail, Giant (100=total damage to plant; 0=no damage to plant)
Protocol: as §1, §2

[5] = system: ivy-leaved morning glory (Ipomoea hederacea); assay: Test G Post-Emergence Protocol; conditions: Ipomoea, post-emergence, 312 h; for pest or weed control at 15.625 g/ha: 15.625 g ai/ha, evaluated after 13 days (100=total damage to plant; 0=no damage to plant), read-out: Morningglory, Ivy-leaved damage rating; for pest or weed control at 62.5 g/ha: 62.5 g ai/ha, read-out: Morningglory, Ivy-leaved damage rating (100=total damage to plant; 0=no damage to plant); for pest or weed control at 62.5 g/ha / pest or weed control at 250 g/ha: evaluated after 13 days; for pest or weed control at 250 g/ha: 250 g ai/ha, read-out: damage to plant, Morningglory, Ivy-leaved (100=total damage to plant; 0=no damage to plant)
Protocol: as §1, §2

[6] = system: redroot pigweed (Amaranthus retroflexus); assay: Test G Post-Emergence Protocol; conditions: Amaranthus retroflexus, post-emergence, 312 h; for pest or weed control at 15.625 g/ha: 15.625 g ai/ha, evaluated after 13 days (100=total damage to plant; 0=no damage to plant), read-out: Pigweed, Redroot damage rating; for pest or weed control at 62.5 g/ha: 62.5 g ai/ha, read-out: Pigweed, Redroot damage rating (100=total damage to plant; 0=no damage to plant); for pest or weed control at 62.5 g/ha / pest or weed control at 250 g/ha: evaluated after 13 days; for pest or weed control at 250 g/ha: 250 g ai/ha, read-out: damage to plant, Pigweed, Redroot (100=total damage to plant; 0=no damage to plant)
Protocol: as §1, §2

[7] = system: velvetleaf (Abutilon theophrasti); assay: Test G Post-Emergence Protocol; conditions: Abutilon theophrasti, post-emergence, 312 h; for pest or weed control at 15.625 g/ha: 15.625 g ai/ha, evaluated after 13 days (100=total damage to plant; 0=no damage to plant), read-out: Velvetleaf damage rating; for pest or weed control at 62.5 g/ha: 62.5 g ai/ha, read-out: Velvetleaf damage rating (100=total damage to plant; 0=no damage to plant); for pest or weed control at 62.5 g/ha / pest or weed control at 250 g/ha: evaluated after 13 days; for pest or weed control at 250 g/ha: 250 g ai/ha, read-out: damage to plant, Velvetleaf (100=total damage to plant; 0=no damage to plant)
Protocol: as §1, §2

`CN1CC(c2ccc(C(F)(F)F)cc2)C(C(=O)Nc2ccccc2S(C)(=O)=O)C1=O` (centres unmarked) [Compound 624] was tested, and the “Plant response rating: Speedwell” value ([1]; 31 g ai/ha) was 90, the “Plant response rating: Speedwell” value ([1]; 62 g ai/ha) was 90 and the “Plant response rating: Speedwell” value ([1]; 125 g ai/ha) was 100. For the same compound, the “Plant response rating: Speedwell” value ([1]; 250 g ai/ha) was 100.
In the case of `CN1CC(c2cccc(C(F)(F)F)c2)C(C(=O)Nc2ccccc2S(C)(=O)=O)C1=O` (centres unmarked) [Compound 637], the “Plant response rating: Speedwell” value ([1]; 31 g ai/ha) is reported as 15, the “Plant response rating: Speedwell” value ([1]; 62 g ai/ha) is reported as 60 and the “Plant response rating: Speedwell” value ([1]; 125 g ai/ha) is reported as 100. The “Plant response rating: Speedwell” value ([1]; 250 g ai/ha) was 100.
For `Cc1ccc([C@H]2CN(C)C(=O)[C@@H]2C(=O)Nc2cccnc2F)cc1` [Compound 1398], the pest or weed control at 15.625 g/ha [2] was 80%, the pest or weed control at 62.5 g/ha [2] was 80% and the pest or weed control at 250 g/ha [2] was 80%. The plant injury at 15.625 g/ha [3] was 30%, the plant injury at 62.5 g/ha [3] was 70% and the plant injury at 250 g/ha [3] was 80%. It also gave a pest or weed control at 15.625 g/ha [4] of 80%, a pest or weed control at 62.5 g/ha [4] of 80% and a pest or weed control at 250 g/ha [4] of 80%. For the same compound, the pest or weed control at 15.625 g/ha [5] was 0%, the pest or weed control at 62.5 g/ha [5] was 40% and the pest or weed control at 250 g/ha [5] was 60%. For the same compound, the pest or weed control at 15.625 g/ha [6] was 0%, the pest or weed control at 62.5 g/ha [6] was 50% and the pest or weed control at 250 g/ha [6] was 60%. It also gave a pest or weed control at 15.625 g/ha [7] of 0%, a pest or weed control at 62.5 g/ha [7] of 40% and a pest or weed control at 250 g/ha [7] of 40%.
For `Cc1ccc([C@H]2CN(C)C(=O)[C@@H]2C(=O)Nc2ccc(F)nc2F)cc1` [Compound 1402], the pest or weed control at 15.625 g/ha [2] was 80%, the pest or weed control at 62.5 g/ha [2] was 80% and the pest or weed control at 250 g/ha [2] was 80%. For the same compound, the plant injury at 15.625 g/ha [3] was 70%, the plant injury at 62.5 g/ha [3] was 80% and the plant injury at 250 g/ha [3] was 80%. The pest or weed control at 15.625 g/ha [4] was 80%, the pest or weed control at 62.5 g/ha [4] was 80% and the pest or weed control at 250 g/ha [4] was 80%. For the same compound, the pest or weed control at 15.625 g/ha [5] was 10%, the pest or weed control at 62.5 g/ha [5] was 40% and the pest or weed control at 250 g/ha [5] was 60%. It also gave a pest or weed control at 15.625 g/ha [6] of 10%, a pest or weed control at 62.5 g/ha [6] of 60% and a pest or weed control at 250 g/ha [6] of 60%. The pest or weed control at 15.625 g/ha [7] was 0%, the pest or weed control at 62.5 g/ha [7] was 30% and the pest or weed control at 250 g/ha [7] was 50%.
